Results from patent US9499550B2 (BRISTOL-MYERS SQUIBB COMPANY, priority 2012, dated 2016).
Like-named read-outs stand apart in the source and are kept apart here.

What was measured:
[1] = system: HCV genotype 1a (H77 strain) replicon in HUH-7 cells; assay: HCV replicon luciferase reporter assay, genotype 1a; type: cell-based; conditions: Hepatitis C virus, Huh-7, 72 h, HCV genotype 1a replicon luciferase, 3 days incubation
Method in brief: (§1)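 Replicon inhibition for both genotypes was measured as Renilla luciferase signal (EnduRen, 7.5 μM final, 2 h) after 3-day, 37° C exposure of replicon-bearing HUH-7 cells in 4% FCS DMEM, 0.5% DMSO. The 1b construct carries S1179I; the 1a H77 construct carries P1496L and S2204I. Twenty-point, 3-fold dilutions were fitted four-parametrically for EC50, and CC50 was taken from multiplexed Cell Titer-Blue.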

[2] = system: HCV genotype 1b (Con1) replicon in HUH-7 cells; assay: HCV replicon luciferase reporter assay, genotype 1b; type: cell-based; conditions: Hepatitis C virus, Huh-7, 72 h, HCV genotype 1b replicon luciferase, 3 days incubation
Method in brief: as §1

[3] = GETYPE1A, read-out: LE_1a (EC50, range)
[4] = GETYPE1B, read-out: LE_1b (EC50, range)
[5] = GETYPE1A, read-out: LE_1a (EC50)
[6] = GETYPE1B, read-out: LE_1b (EC50)

| SMILES | EC50 ([1]; read-out: LE_1a (EC50, range)) [nM] | EC50 ([2]; read-out: LE_1b (EC50, range)) [nM] | EC50 [1, 3] [nM] | EC50 [2, 4] [nM] | EC50 [1, 5] [nM] | EC50 [2, 6] [nM] |
| --- | --- | --- | --- | --- | --- | --- |
| COc1ccc2c(Cl)cc(O[C@@H]3C[C@H]4C(=O)N[C@]5(C(=O)NS(=O)(=O)C6(C)CC6)C[C@H]5/C=C\CC[C@@H](C)C[C@@H](C)[C@H](NC(=O)OC(C)(C)C)C(=O)N4C3)nc2c1 [Compound 4300, tert-butyl ((2R,6S,7R,9R,13aS,14aR,16aS,Z)-2-((4-chloro-7-methoxyquinolin-2-yl)oxy)-7,9-dimethyl-14a-(((1-methylcyclopropyl)sulfonyl)carbamoyl)-5,16-dioxo-1,2,3,5,6,7,8,9,10,11,13a,14,14a,15,16,16a-hexadecahydrocyclopropa[e]pyrrolo[1,2-a][1,4]diazacyclopentadecin-6-yl)carbamate] | 0.51 to 1 | 0.51 to 1 |  |  |  |  |
| COc1ccc2c(Cl)cc(O[C@@H]3C[C@H]4C(=O)N[C@]5(C(=O)NS(=O)(=O)C6(C)CC6)C[C@H]5/C=C\CC[C@@H](C)C[C@@H](C)[C@H](NC(=O)OC(C)(C)C(F)(F)F)C(=O)N4C3)nc2c1 [Compound 4302] |  |  | 1.01 to 5 | 1.01 to 5 |  |  |
| CC[C@@H]1C[C@H](C)CC/C=C\[C@@H]2C[C@@]2(C(=O)NS(=O)(=O)C2CC2)NC(=O)[C@@H]2C[C@@H](Oc3nc4ccc(OC)cc4nc3N(C)C)CN2C(=O)[C@H]1NC(=O)OC(C)(C)C [Compound 4304, tert-butyl ((2R,6S,7R,9R,13aS,14aR,16aS,Z)-14a-((cyclopropylsulfonyl)carbamoyl)-2-((3-(dimethylamino)-6-methoxyquinoxalin-2-yl)oxy)-7-ethyl-9-methyl-5,16-dioxo-1,2,3,5,6,7,8,9,10,11,13a,14,14a,15,16,16a-hexadecahydrocyclopropa[e]pyrrolo[1,2-a][1,4]diazacyclopentadecin-6-yl)carbamate] | 35 to 620 | 5.01 to 35 |  |  |  |  |
| CC[C@@H]1C[C@H](C)CC/C=C\[C@@H]2C[C@@]2(C(=O)NS(=O)(=O)C2CC2)NC(=O)[C@@H]2C[C@@H](Oc3nc4ccc(OC)cc4nc3N(C)C)CN2C(=O)C1NC(=O)OC(C)(C)C(F)(F)F (stereo partly shown) [Compound 4305] |  |  | 35 to 620 | 5.01 to 35 |  |  |
| COc1cnc2ccc(O[C@@H]3C[C@H]4C(=O)N[C@]5(C(=O)NS(=O)(=O)C6(C)CC6)C[C@H]5/C=C\CC[C@@H](C)C[C@@H](C)[C@H](NC(=O)OC(C)(C)C)C(=O)N4C3)cc2n1 [Compound 4310, tert-butyl ((2R,6S,7R,9R,13aS,14aR,16aS,Z)-2-((3-methoxyquinoxalin-6-yl)oxy)-7,9-dimethyl-14a-(((1-methylcyclopropyl)sulfonyl)carbamoyl)-5,16-dioxo-1,2,3,5,6,7,8,9,10,11,13a,14,14a,15,16,16a-hexadecahydrocyclopropa[e]pyrrolo[1,2-a][1,4]diazacyclopentadecin-6-yl)carbamate] | 0.51 to 1 | 1.01 to 5 |  |  |  |  |
| CCOc1ccc2ncc(O[C@@H]3C[C@H]4C(=O)N[C@]5(C(=O)NS(=O)(=O)C6(C)CC6)C[C@H]5/C=C\CC[C@@H](C)C[C@@H](C)[C@H](NC(=O)OC(C)(C)C)C(=O)N4C3)cc2c1 [Compound 4311, tert-butyl ((2R,6S,7R,9R,13aS,14aR,16aS,Z)-2-((6-ethoxyquinolin-3-yl)oxy)-7,9-dimethyl-14a-(((1-methylcyclopropyl)sulfonyl)carbamoyl)-5,16-dioxo-1,2,3,5,6,7,8,9,10,11,13a,14,14a,15,16,16a-hexadecahydrocyclopropa[e]pyrrolo[1,2-a][1,4]diazacyclopentadecin-6-yl)carbamate] | 1.01 to 5 | 1.01 to 5 |  |  |  |  |
| CCOc1ccc2nc(Cl)c(O[C@@H]3C[C@H]4C(=O)N[C@]5(C(=O)NS(=O)(=O)C6(C)CC6)C[C@H]5/C=C\CC[C@@H](C)C[C@@H](C)[C@H](NC(=O)OC(C)(C)C(F)(F)F)C(=O)N4C3)c(Cl)c2c1 [Compound 4312] |  |  | 5.01 to 35 | 5.01 to 35 | 20.9 | 12.2 |
| CCOc1ccc2ncc(O[C@@H]3C[C@H]4C(=O)N[C@]5(C(=O)NS(=O)(=O)C6(C)CC6)C[C@H]5/C=C\CC[C@@H](C)C[C@@H](C)[C@H](NC(=O)OC(C)(C)C(F)(F)F)C(=O)N4C3)cc2c1 [Compound 4313] |  |  | 0.51 to 1 | 0.1 to 0.5 |  |  |
| CCOc1ccc2ncc(O[C@@H]3C[C@H]4C(=O)N[C@]5(C(=O)NS(=O)(=O)C6(C)CC6)C[C@H]5/C=C\CC[C@@H](C)C[C@@H](CC)[C@H](NC(=O)OC(C)(C)C(F)(F)F)C(=O)N4C3)cc2c1 [Compound 4314] |  |  | 1.01 to 5 | 1.01 to 5 |  |  |
| COc1ccc2nc(C(C)C)c(O[C@@H]3C[C@H]4C(=O)N[C@]5(C(=O)NS(=O)(=O)C6CC6)C[C@H]5/C=C\CC[C@H](C)C[C@@H](C)[C@H](NC(=O)OC(C)(C)C)C(=O)N4C3)nc2c1 [Compound 4315, tert-butyl ((2R,6S,7R,9S,13aS,14aR,16aS,Z)-14a-((cyclopropylsulfonyl)carbamoyl)-2-((3-isopropyl-7-methoxyquinoxalin-2-yl)oxy)-7,9-dimethyl-5,16-dioxo-1,2,3,5,6,7,8,9,10,11,13a,14,14a,15,16,16a-hexadecahydrocyclopropa[e]pyrrolo[1,2-a][1,4]diazacyclopentadecin-6-yl)carbamate] | 5.01 to 35 | 1.01 to 5 |  |  |  |  |
| COc1ccc2nc(C(C)C)c(O[C@@H]3C[C@H]4C(=O)N[C@]5(C(=O)NS(=O)(=O)C6CC6)C[C@H]5/C=C\CC[C@@H](C)C[C@@H](C)[C@H](NC(=O)OC(C)(C)C)C(=O)N4C3)nc2c1 [Compound 4316, tert-butyl ((2R,6S,7R,9R,13aS,14aR,16aS,Z)-14a-((cyclopropylsulfonyl)carbamoyl)-2-((3-isopropyl-7-methoxyquinoxalin-2-yl)oxy)-7,9-dimethyl-5,16-dioxo-1,2,3,5,6,7,8,9,10,11,13a,14,14a,15,16,16a-hexadecahydrocyclopropa[e]pyrrolo[1,2-a][1,4]diazacyclopentadecin-6-yl)carbamate] | 1.01 to 5 | 1.01 to 5 |  |  |  |  |
| COc1ccc2nc(C(C)C)c(O[C@@H]3C[C@H]4C(=O)N[C@]5(C(=O)NS(=O)(=O)C6CC6)C[C@H]5/C=C\CC[C@@H](C)C[C@@H](C)[C@H](NC(=O)OC(C)(C)C(F)(F)F)C(=O)N4C3)nc2c1 [Compound 4317] |  |  | 1.01 to 5 | 1.01 to 5 |  |  |
| COc1ccc2nc(C(C)C)c(O[C@@H]3C[C@H]4C(=O)N[C@]5(C(=O)NS(=O)(=O)C6CC6)C[C@H]5/C=C\CC[C@H](C)C[C@@H](C)[C@H](NC(=O)OC(C)(C)C(F)(F)F)C(=O)N4C3)nc2c1 [Compound 4318] |  |  | 5.01 to 35 | 1.01 to 5 |  |  |
| COc1ccc2c(O[C@@H]3C[C@H]4C(=O)N[C@]5(C(=O)NS(=O)(=O)C6(C)CC6)C[C@H]5/C=C\CC[C@@H](C)C[C@@H](C)[C@H](NC(=O)OC(C)(C)C)C(=O)N4C3)cnnc2c1 [Compound 4319, tert-butyl ((2R,6S,7R,9R,13aS,14aR,16aS,Z)-2-((7-methoxycinnolin-4-yl)oxy)-7,9-dimethyl-14a-(((1-methylcyclopropyl)sulfonyl)carbamoyl)-5,16-dioxo-1,2,3,5,6,7,8,9,10,11,13a,14,14a,15,16,16a-hexadecahydrocyclopropa[e]pyrrolo[1,2-a][1,4]diazacyclopentadecin-6-yl)carbamate] | 5.01 to 35 | 35 to 620 |  |  |  |  |
| CC[C@@H]1C[C@H](C)CC/C=C\[C@@H]2C[C@@]2(C(=O)NS(=O)(=O)C2(C)CC2)NC(=O)[C@@H]2C[C@@H](Oc3cnnc4cc(OC)ccc34)CN2C(=O)[C@H]1NC(=O)OC(C)(C)C(F)(F)F [Compound 4320] |  |  | 5.01 to 35 | 5.01 to 35 | 15 | 21.9 |
| CC[C@@H]1C[C@H](C)CC/C=C\[C@@H]2C[C@@]2(C(=O)NS(=O)(=O)C2(C)CC2)NC(=O)[C@@H]2C[C@@H](Oc3cnnc4cc(OC)ccc34)CN2C(=O)[C@H]1NC(=O)OC(C)(C)C [Compound 4321, tert-butyl ((2R,6S,7R,9R,13aS,14aR,16aS,Z)-7-ethyl-2-((7-methoxycinnolin-4-yl)oxy)-9-methyl-14a-(((1-methylcyclopropyl)sulfonyl)carbamoyl)-5,16-dioxo-1,2,3,5,6,7,8,9,10,11,13a,14,14a,15,16,16a-hexadecahydrocyclopropa[e]pyrrolo[1,2-a][1,4]diazacyclopentadecin-6-yl)carbamate] | 5.01 to 35 | 5.01 to 35 |  |  |  |  |
| COc1ccc2c(O[C@@H]3C[C@H]4C(=O)N[C@]5(C(=O)NS(=O)(=O)C6(C)CC6)C[C@H]5/C=C\CC[C@@H](C)C[C@@H](C)[C@H](NC(=O)OC(C)(C)C(F)(F)F)C(=O)N4C3)cnnc2c1 [Compound 4322] |  |  | 5.01 to 35 | 5.01 to 35 |  |  |
| CC[C@@H]1C[C@H](C)CC/C=C\[C@@H]2C[C@@]2(C(=O)NS(=O)(=O)C2(C)CC2)NC(=O)[C@@H]2C[C@@H](Oc3ncc(OC)c4ccc(F)cc34)CN2C(=O)[C@H]1NC(=O)C1(C(F)(F)F)CC1 [Compound 4323, (2R,6S,7R,9R,13aS,14aR,16aS,Z)-7-ethyl-2-((7-fluoro-4-methoxyisoquinolin-1-yl)oxy)-9-methyl-N-((1-methylcyclopropyl)sulfonyl)-5,16-dioxo-6-(1-(trifluoromethyl)cyclopropanecarboxamido)-1,2,3,5,6,7,8,9,10,11,13a,14,14a,15,16,16a-hexadecahydrocyclopropa[e]pyrrolo[1,2-a][1,4]diazacyclopentadecine-14a-carboxamide] | 1.01 to 5 | 0.51 to 1 |  |  |  |  |
